One assay concerns the target T1, recombinant HIV-RT (Human immunodeficiency virus type 1 group M subtype B, UniProt P04585).
T1 construct: recombinant HIV-RT (diluted in virus disruption buffer to give 200.000 cpm)
Nature of the assay: biochemical. As for the experimental part:
100 mM Tris-HCl pH 7.6, 100 mM KCl, 4 mM MgCl2, 4 mM DTT, 275 mg/ml BSA, 0.5 mg (rA)n(dT)12-18 and 0.3 mM ^3H-=dTTP (specific activity 18.000 cpm/mol). After 60 minutess of incubation 40 ml in duplicate were spotted on paper discs and washed in 5% TCA. After rinsing the paper discs in ethanol they were dried and counted in scintillation fluid.

The test system of a further assay is HIV virus. Put plainly: Test A (XTT): reduction of virus-induced cytotoxicity in MT4 cells. Particulars: for % inhibition: Test A. Format: cell-based. How it is done: Tests A, B, C, and D (XTT)
MT4 cells in a medium of RPMI 1640, 5% FCS, penicillin/streptomycin are adjusted to 2x10^5 cells/ml and seeded into microplates (96 wells/plate) […] cell suspension/well giving 2x10^4 cells/well. The compound to be tested is made into a 10 mg/ml mixture in DMSO and stored at -20°C. […] Further dilutions to […] are made in medium containing microplates. Fifty […] of the 400, 40, and 4 mg/ml are transferred to the cell-containing microplates with a multi-channel pipette (final concentration: […]). Finally, […] of virus suspension is added to each well (with a repetitive "Eppendorf" multipipett). […] The plate is put into a plastic bag and incubated for six days in CO2 atmosphere. To each well in the plate is added […] of XTT ((2,3-bis[2-methoxy-4-nitro-5-sulfophenyl]-5-[(phenylamin o)carbonyl]-2H-tetrazolium hydroxide), (1 mg/ml 0.01-0.02 mM N-metyl-phenazonium methosulfate). After six hours of incubation in CO2 atmosphere the plates are covered with adhesive plate sealers and gently mixed on a vortex. Optical densities are determined at a wavelength of 450 nm and a reference wavelength of 650 nm. The percent reduction of cytotoxocity caused by the virus infection is calculated as follows: (OD450 compound - OD450 inf cells)/(OD450 uninf cells - OD450 inf cells)x 100 [formula]
For orientation: Tetrazolium dyes change colour on reduction, which living cells bring about.

[1] abbreviates: Human immunodeficiency virus 1, MT4.
The mark [2] stands for this setting: Human immunodeficiency virus 1, MT4, Test A, MT4 cells, 0.1 µg/ml, read-out: % inhibition.
[3] abbreviates: Human immunodeficiency virus 1, MT4, Test A, MT4 cells, 1 µg/ml.
[4] abbreviates: Human immunodeficiency virus 1, MT4, Test A, MT4 cells, 100 µg/ml, read-out: % inhibition.
Setting [5] is: IC50, Test I, several values in a cell are repeat determinations.
Where [6] appears, read: Test I, several values in a cell are repeat determinations, read-out: IC50 (converted).

“And” between values parts separate entries of the source, which are not always exact repeats. Equal values may be shown once. Read-outs that look alike come from different tables or passages of the source.

On to `O=C(Nc1ccc(Cl)cn1)N[C@H]1C[C@H]1c1c(F)cccc1F`, for which the half-maximal inhibitory concentration (IC50) at recombinant HIV-RT (IC50, Test I) was 2.47 nM and 1.54 nM. Further, the “% inhibition” value at recombinant HIV-RT (Test I, 0.001 µg/ml) was 62%; on recombinant HIV-RT (Test I, 0.01 µg/ml) it was 93%; in the assay on HIV virus (MT4 cells, 0.001 µg/ml) it was 8%; in the assay on HIV virus (MT4 cells, 0.01 µg/ml), 81%; in the assay on HIV virus (MT4 cells, 1 µg/ml) it was 90%. Further, the inhibition at 0.001 µg/mL on recombinant HIV-RT (Test I, 0.001 µg/ml) turned out to be 55%; in the assay with HIV virus (Human immunodeficiency virus 1, MT4, Test A, MT4 cells, 0.001 µg/ml) it was 7%. In addition, the inhibition at 0.01 µg/mL came out at 89% at recombinant HIV-RT (Test I, 0.01 µg/ml) and 80% with HIV virus (Human immunodeficiency virus 1, MT4, Test A, MT4 cells, 0.01 µg/ml). Moreover, the inhibition at 0.1 µg/mL at recombinant HIV-RT (Test I, 0.1 µg/ml (column 4)) turned out to be 98%; with HIV virus (setting [1]) it was 100%; with HIV virus (setting [2]) it was 82%. Besides, the inhibition at 1 µg/mL on recombinant HIV-RT (Test I, 1 µg/ml) stood at 100%; in the assay with HIV virus (setting [3]) it was 86%. The inhibition at 10 µg/mL with HIV virus (setting [1]) worked out at 100%. The values for the inhibition at 100 µg/mL in the assay on HIV virus (setting [1]) and in the assay on HIV virus (setting [4]) were 100% and 3%, respectively.

As to `CCOc1ccc(F)c(CCNC(=O)Nc2ccc(Br)cn2)c1Cl`, the IC50 on recombinant HIV-RT (IC50, Test I) is 4.8 nM and 3.36 nM. Besides, on recombinant HIV-RT (Test I, 0.001 µg/ml), the “% inhibition” value amounted to 45% and the inhibition at 0.001 µg/mL stood at 41%.

Regarding `O=C(NCCc1c(F)cccc1F)Nc1ccc(Cl)cn1`, in the assay on HIV virus (setting [2]), the inhibition at 0.1 µg/mL worked out at 92%. In the assay on HIV virus (setting [3]), this molecule yielded an inhibition at 1 µg/mL of 87%. In the assay with HIV virus (Human immunodeficiency virus 1, MT4, Test A, MT4 cells, 10 µg/ml, read-out: % inhibition), the inhibition at 10 µg/mL was found to be 93%. Also, in the assay on HIV virus (setting [4]), the inhibition at 100 µg/mL came out at 0%. The “% inhibition” value with HIV virus (MT4 cells, 0.001 µg/ml) is 6%; in the assay with HIV virus (MT4 cells, 0.01 µg/ml) it was 51% and 94%; with HIV virus (MT4 cells, 1 µg/ml) it was 98%.

With `N#Cc1ccc(NC(=O)N[C@@H]2C[C@@H]2c2c(F)cccc2F)nc1` (racemic) [Example 26, (+,-)-N-(cis-2-(2,6-Difluorophenyl)-cyclopropyl)-N'-(5-cyanopyrid-2-yl)-urea], at recombinant HIV-RT (setting [5]), the IC50 was 28.6 nM and 31.8 nM.

Consider `COCOc1c(C(C)=O)ccc(F)c1[C@H]1C[C@H]1NC(=O)Nc1ccc(Cl)cn1` (racemic) [Example 56, (+,-)-N-(cis-2-(5-Acetyl-2-fluoro-6-methoxymethoxyphenyl)cyclopropyl)-N'-(5-chloropyrid-2-yl)-urea], for which the IC50 on recombinant HIV-RT (setting [5]) is 5.64 nM and 5.39 nM.

On to `CC(=O)c1ccc(F)c([C@H]2C[C@H]2NC(=O)Nc2ccc(Cl)cn2)c1O` (racemic) [Example 57, (+,-)-N-(cis-2-(5-Acetyl-2-fluoro-6-hydroxyphenyl)cyclopropyl)-N'-(5-chloropyrid-2-yl)-urea], for which, at recombinant HIV-RT (setting [5]), the IC50 is 1.1 nM (2×) and 1.37 nM.

As for `O=C(Nc1ccc(Cl)cn1)N[C@@H]1C[C@@H]1c1c(F)ccc(O)c1Cl` (racemic) [Example 64, (+, -)-N-(cis-2-(2-chloro-3-hydroxy-6-fluorophenyl)cyclopropyl)-N'-(5-chloropyrid-2-yl)-urea], the IC50 on recombinant HIV-RT (setting [5]) was 3.65 nM.

With `N#Cc1ccc(NC(=O)N[C@@H]2C[C@@H]2c2c(F)cccc2Cl)nc1` (relative stereo) [Example 33, N-(cis-2-(2-chloro-6-fluorophenyl)cyclopropyl)-N'-(5-cyanopyrid-2-yl)-urea], the IC50 on recombinant HIV-RT (setting [5]) was 1.51 nM.

`O=C(Nc1ccc(Cl)cn1)N[C@@H]1C[C@@H]1c1c(F)cccc1Cl` (relative stereo) [Example 34, N-(cis-2-(2-chloro-6-fluorophenyl)-cyclopropyl) -N'-(5-chloropyrid-2-yl)-urea]: at recombinant HIV-RT (setting [5]), the IC50 was 1.18 nM.

For the molecule `O=C(Nc1ccc(Br)cn1)NC1CC1c1c(F)cccc1F` [Example 27, (1R,2S)-N-(cis-2-(2,6-Difluorophenyl)-cyclopropyl)-N'-5-bromopyrid-2-yl)-urea], at recombinant HIV-RT (setting [6]), the IC50 was 1.36 nM and 1.63 nM.

As for `CC(=O)c1ccc(F)c(CCNC(=O)Nc2ccc(Cl)cn2)c1O` [Example 58], on recombinant HIV-RT (setting [6]), the IC50 is 108 nM.

The IC50 is the concentration that gives 50% inhibition. The % inhibition is the change of the read-out against control, counted positive when it falls. By inhibition is commonly meant the change of the read-out against control, counted positive when it falls.

The values above are taken from patent publication EP0706514B1, “COMPOUNDS AND METHODS FOR INHIBITION OF HIV AND RELATED VIRUSES” (MEDIVIR AB, priority 1993, dated 1995).
